Reference: US11414424B2, “Cardiac sarcomere inhibitors” (Cytokinetics, Inc., priority 2018, dated 2022)

Test system: bovine cardiac myofibrils
Assay: Myofibril assay: PK/LDH-coupled steady-state ATPase activity of skinned bovine cardiac myofibrils
Type: biochemical
Conditions: Ca2+ activating to 75% of maximal rate
Procedure, shortened: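 Steady-state ATPase of detergent-skinned bovine left-ventricular myofibrils (1 mg/mL), PK/LDH-coupled NADH read at 340 nm, in PIPES/MgCl2 buffer pH 6.8 with 50 μM ATP, 0.6 mM EGTA and CaCl2 set for 50% or 75% activation. Inhibition of activity measured.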

Row | CDMF75 IC15 [µM] | Compound
1 | 12.1 | CC(=O)N1CC[C@]2(C1)C(=O)N(c1ccc(OC(F)F)cc1)CC(=O)N2Cc1ccc(Cl)cc1 [Compound 224, (S)-2-acetyl-6-(4-chloro-benzyl)-9-(4-(difluoro-methoxy)phenyl)-2,6,9-triazaspiro[4.5]decane-7,10-dione]
2 | 29.6 | COc1ccc(N2CC(=O)N(Cc3ccc(Cl)cc3)[C@]3(CCN(C(C)=O)C3)C2=O)nc1 [Compound 225, (S)-2-acetyl-6-(4-chloro-benzyl)-9-(5-methoxy-pyridin-2-yl)-2,6,9-triazaspiro[4.5]decane-7,10-dione]
3 | 0.7 | N#Cc1ccc(N2CC(=O)N(Cc3ccc(Cl)cc3)[C@]3(C[C@@H](C(N)=O)C3)C2=O)c(F)c1 [Compound 266, (2s,4s)-5-(4-chlorobenzyl)-8-(4-cyano-2-fluorophenyl)-6,9-dioxo-5,8-diazaspiro-[3.5]nonane-2-carboxamide]
4 | 1.2 | CC1(CO)C(=O)N(c2ccc(C#N)cc2F)CC(=O)N1Cc1ccc(C(F)(F)F)cc1 (stereo not shown) [Compound 269, 3-fluoro-4-(3-(hydroxy-methyl)-3-methyl-2,5-dioxo-4-(4-(trifluoro-methyl)benzyl)piperazin-1-yl)benzonitrile]
5 | 1.9 | CC1(CO)C(=O)N(c2ccc(Cl)cc2F)CC(=O)N1Cc1ccc(C(F)(F)F)cc1 (stereo not shown) [Compound 270, 1-(4-chloro-2-fluorophenyl)-3-(hydroxymethyl)-3-methyl-4-(4-(trifluoro-methyl)benzyl)piperazine-2,5-dione]
6 | 0.6 | O=C1CN(c2ccc(Cl)cc2F)C(=O)C2(CC2)N1Cc1ccc(C(F)(F)F)cc1 [Compound 271, 7-(4-chloro-2-fluorophenyl)-4-(4-(trifluoromethyl)-benzyl)-4,7-diazaspiro-[2.5]octane-5,8-dione]
7 | 0.5 | O=C1CN(c2ccc(Cl)cc2F)C(=O)C2(CCC2)N1Cc1ccc(C(F)(F)F)cc1 [Compound 272, 8-(4-chloro-2-fluorophenyl)-5-(4-(trifluoromethyl)-benzyl)-5,8-diazaspiro-[3.5]nonane-6,9-dione]
8 | 1.8 | CC1(C)C(=O)N(c2ccc(Cl)cc2F)CC(=O)N1Cc1ccc(C(F)(F)F)cc1 [Compound 273, 1-(4-chloro-2-fluorophenyl)-3,3-dimethyl-4-(4-(trifluoromethyl)benzyl)-piperazine-2,5-dione]
9 | 1.0 | O=C1CN(c2ccc(Cl)cc2F)C(=O)C2(COC2)N1Cc1ccc(C(F)(F)F)cc1 [Compound 274, 8-(4-chloro-2-fluorophenyl)-5-(4-(trifluoromethyl)-benzyl)-2-oxa-5,8-diazaspiro[3.5]nonane-6,9-dione]
10 | 6.0 | C[C@@H]1C(=O)N(c2ccc(Cl)cc2F)CC(=O)N1Cc1ccc(C(F)(F)F)cc1 [Compound 275, (R)-1-(4-chloro-2-fluoro-phenyl)-3-methyl-4-(4-(trifluoromethyl)benzyl)-piperazine-2,5-dione]
11 | 3.0 | C[C@H]1C(=O)N(c2ccc(Cl)cc2F)CC(=O)N1Cc1ccc(C(F)(F)F)cc1 [Compound 276, (S)-1-(4-chloro-2-fluoro-phenyl)-3-methyl-4-(4-(trifluoromethyl)benzyl)-piperazine-2,5-dione]
12 | 32.7 | O=C1CN(c2ccc(Cl)cc2F)C(=O)CN1Cc1ccc(C(F)(F)F)cc1 [Compound 277, 1-(4-chloro-2-fluorophenyl)-4-(4-(trifluoromethyl)-benzyl)piperazine-2,5-dione]
13 | 1.2 | CC1(C)C(=O)N(c2ccc(C#N)cc2F)CC(=O)N1Cc1ccc(C(F)(F)F)cc1 [Compound 279, 4-(3,3-dimethyl-2,5-dioxo-4-(4-(trifluoromethyl)-benzyl)piperazin-1-yl)-3-fluorobenzonitrile]
14 | 0.9 | N#Cc1ccc(N2CC(=O)N(Cc3ccc(C(F)(F)F)cc3)C3(COC3)C2=O)c(F)c1 [Compound 280, 4-(6,9-dioxo-5-(4-(trifluoromethyl)benzyl)-2-oxa-5,8-diazaspiro[3.5]-nonan-8-yl)-3-fluorobenzonitrile]
15 | 4.3 | O=C1C(C2COC2)N(Cc2ccc(C(F)(F)F)cc2)C(=O)CN1c1ccc(Cl)cc1F (stereo not shown) [Compound 281, 1-(4-chloro-2-fluorophenyl)-3-(oxetan-3-yl)-4-(4-(trifluoromethyl)benzyl)-piperazine-2,5-dione]
16 | 3.8 | N#Cc1ccc(N2CC(=O)N(Cc3ccc(C(F)(F)F)cc3)C(C3COC3)C2=O)c(F)c1 (stereo not shown) [Compound 282, 3-fluoro-4-(3-(oxetan-3-yl)-2,5-dioxo-4-(4-(trifluoromethyl)benzyl)-piperazin-1-yl)benzonitrile]
17 | 0.6 | CC(C)[C@H]1C(=O)N(c2ccc(C#N)cc2F)CC(=O)N1Cc1ccc(C(F)(F)F)cc1 [Compound 283, (S)-3-fluoro-4-(3-isopropyl-2,5-dioxo-4-(4-(trifluoromethyl)benzyl)-piperazin-1-yl)benzonitrile]
18 | 0.5 | N#Cc1ccc(N2CC(=O)N(Cc3ccc(C(F)(F)F)cc3)[C@@H](C3CCC3)C2=O)c(F)c1 [Compound 284, (S)-4-(3-cyclobutyl-2,5-dioxo-4-(4-(trifluoromethyl)benzyl)piperazin-1-yl)-3-fluorobenzonitrile]

Row | CDMF75 IC15 [µM] | Compound
19 | 0.7 | N#Cc1ccc(N2CC(=O)N(Cc3ccc(C(F)(F)F)cc3)C3(CCOC3)C2=O)c(F)c1 (stereo not shown) [Compound 286, 4-(7,10-dioxo-6-(4-(trifluoromethyl)benzyl)-2-oxa-6,9-diazaspiro[4.5]decan-9-yl)-3-fluorobenzonitrile]
20 | 3.2 | N#Cc1ccc(N2CC(=O)N(Cc3ccc(C(F)(F)F)cc3)[C@@H](CO)C2=O)c(F)c1 [Compound 287, (S)-3-fluoro-4-(3-(hydroxymethyl)-2,5-dioxo-4-(4-(trifluoromethyl)-benzyl)piperazin-1-yl)-benzonitrile]
21 | 36.0 | CC(C)N1CC(=O)N(Cc2ccc(Cl)cn2)C(c2ccc(Cl)cc2)C1=O (stereo not shown) [Compound 293, 3-(4-chlorophenyl)-4-((5-chloropyridin-2-yl)methyl)-1-isopropylpiperazine-2,5-dione]
22 | 33.3 | CC(C)N1CC(=O)N(Cc2ccccc2)C(c2ccc(Cl)cc2)C1=O (stereo not shown) [Compound 294, 4-benzyl-3-(4-chlorophenyl)-1-isopropylpiperazine-2,5-dione]
23 | 11.6 | CC(C)N1CC(=O)N(Cc2ccc(Cl)cc2)C(c2ccc(Cl)cn2)C1=O (stereo not shown) [Compound 297, 4-(4-chlorobenzyl)-3-(5-chloropyridin-2-yl)-1-isopropylpiperazine-2,5-dione]
24 | 5.4 | CC(C)N1CC(=O)N(Cc2cccc(Cl)c2)C(c2ccc(Cl)cc2)C1=O (stereo not shown) [Compound 298, 4-(3-chlorobenzyl)-3-(4-chlorophenyl)-1-isopropylpiperazine-2,5-dione]
25 | 7.0 | CC(C)N1CC(=O)N(Cc2cccc(F)c2)C(c2ccc(Cl)cc2)C1=O (stereo not shown) [Compound 299, 3-(4-chlorophenyl)-4-(3-fluorobenzyl)-1-isopropylpiperazine-2,5-dione]
26 | 28.3 | Cc1ccccc1CN1C(=O)CN(C(C)C)C(=O)C1c1ccc(Cl)cc1 (stereo not shown) [Compound 300, 3-(4-chlorophenyl)-1-isopropyl-4-(2-methylbenzyl)piperazine-2,5-dione]
27 | 18.6 | CC(C)N1CC(=O)N(Cc2ccccc2C#N)C(c2ccc(Cl)cc2)C1=O (stereo not shown) [Compound 301, 2-((2-(4-chlorophenyl)-4-isopropyl-3,6-dioxo-piperazin-1-yl)methyl)-benzonitrile]
28 | 15.2 | CC(C)N1CC(=O)N(Cc2ccccc2Cl)C(c2ccc(Cl)cc2)C1=O (stereo not shown) [Compound 302, 4-(2-chlorobenzyl)-3-(4-chlorophenyl)-1-isopropylpiperazine-2,5-dione]
29 | 3.7 | CC(C)N1CC(=O)N(Cc2ccc(F)cc2)C(c2ccc(Cl)cc2)C1=O (stereo not shown) [Compound 303, 3-(4-chlorophenyl)-4-(4-fluorobenzyl)-1-isopropylpiperazine-2,5-dione]
30 | 16.4 | Cc1cccc(CN2C(=O)CN(C(C)C)C(=O)C2c2ccc(Cl)cc2)c1 (stereo not shown) [Compound 304, 3-(4-chlorophenyl)-1-isopropyl-4-(3-methyl-benzyl)piperazine-2,5-dione]
31 | 6.0 | Cc1ccc(CN2C(=O)CN(C(C)C)C(=O)C2c2ccc(Cl)cc2)cc1 (stereo not shown) [Compound 305, 3-(4-chlorophenyl)-1-isopropyl-4-(4-methylbenzyl)piperazine-2,5-dione]
32 | 27.0 | CC(C)N1CC(=O)N(Cc2cccc(C#N)c2)C(c2ccc(Cl)cc2)C1=O (stereo not shown) [Compound 306, 3-((2-(4-chlorophenyl)-4-isopropyl-3,6-dioxo-piperazin-1-yl)methyl)-benzonitrile]
33 | 36.7 | CC(C)N1CC(=O)N(Cc2ccc(C#N)cc2)C(c2ccc(Cl)cc2)C1=O (stereo not shown) [Compound 307, 4-((2-(4-chlorophenyl)-4-isopropyl-3,6-dioxo-piperazin-1-yl)methyl)-benzonitrile]
34 | 22.7 | CC(C)N1CC(=O)N(Cc2cccc(C(F)(F)F)c2)C(c2ccc(Cl)cc2)C1=O (stereo not shown) [Compound 308, 3-(4-chlorophenyl)-1-isopropyl-4-(3-(trifluoro-methyl)benzyl)piperazine-2,5-dione]
35 | 2.8 | CC(C)N1CC(=O)N(Cc2ccc(C(F)(F)F)cc2)C(c2ccc(Cl)cc2)C1=O (stereo not shown) [Compound 309, 3-(4-chlorophenyl)-1-isopropyl-4-(4-(trifluoro-methyl)benzyl)piperazine-2,5-dione]
36 | 13.1 | CC(C)N1CC(=O)N(Cc2ccc(Cl)cc2)C(c2ccccc2Cl)C1=O (stereo not shown) [Compound 310, 4-(4-chlorobenzyl)-3-(2-chlorophenyl)-1-isopropylpiperazine-2,5-dione]

Row | Compound | CDMF75 IC15 [µM]
37 | CC(C)(C)OC[C@H]1C(=O)N(c2ccc(C#N)cc2F)CC(=O)N1Cc1ccc(C(F)(F)F)cc1 [Compound 285, (S)-4-(3-(tert-butoxymethyl)-2,5-dioxo-4-(4-(trifluoro-methyl)benzyl)piperazin-1-yl)-3-fluorobenzonitrile] | 8.3
